We go through twelve compounds from PubChem BioAssay AID1259408 (Genetic Toxicology Data Bank (GENE-TOX), 2018).

The subject of the data set is GENE-TOX genotoxicity assays, various organisms and cells. As to the kind of experiment: GENE-TOX mutagenicity studies. Conditions: for call: Assay Type: In vivo carcinogenicity studies.
Where [1] appears, read: Species/Cell Type: Mouse, Sex: Male, Assay Type: Sperm morphology, Assay Code: SPI-, Evaluation Type: Evaluation A (Pre-1980).
The mark [2] stands for this setting: Species/Cell Type: Saccharomyces cerevisiae, Assay Type: Mitotic recombination or gene conversion, Assay Code: YEH-, Evaluation Type: Evaluation A (Pre-1980).
[3] abbreviates: Species/Cell Type: Salmonella typhimurium (one or more of the five standard strains: TA98, TA100, TA1535, TA1537, and TA1538), Assay Type: Histidine reverse gene mutation, Ames assay, Assay Code: SAL+, Evaluation Type: Evaluation A (Pre-1980).
The mark [4] stands for this setting: Species/Cell Type: Fischer rat embryo (RLV/1706) cells, Assay Type: Cell transformation, viral enhanced, Assay Code: CTR+, Evaluation Type: Evaluation A (Pre-1980).
Where [5] appears, read: Species/Cell Type: Human diploid fibroblasts, Assay Type: Unscheduled DNA synthesis (UDS) in vitro, DNA effects, Assay Code: UDH-, Evaluation Type: Evaluation A (Pre-1980).
The mark [6] stands for this setting: Species/Cell Type: Mammalian polychromatic erythrocytes, Assay Type: Micronucleus test, chromosome aberrations, Assay Code: MNTT, Evaluation Type: Evaluation A (Pre-1980).
The mark [7] stands for this setting: Species/Cell Type: Nonhuman, Assay Code: CCG+, Evaluation Type: Evaluation A (Pre-1980).
The mark [8] stands for this setting: Species/Cell Type: Syrian hamster embryo (SHE) cells, Assay Type: Cell transformation, clonal assay, Assay Code: CTC+, Evaluation Type: Evaluation A (Pre-1980).
Setting [9] is: Species/Cell Type: Salmonella typhimurium (one or more of the five standard strains: TA98, TA100, TA1535, TA1537, and TA1538), Assay Type: Histidine reverse gene mutation, Ames assay, Assay Code: SALT, Evaluation Type: Evaluation A (Pre-1980).
Setting [10] is: Species/Cell Type: Human lymphocytes, Assay Type: Sister-chromatid exchange (SCE) in vitro, Assay Code: SCL+D, Dose Response: With dose response, Evaluation Type: Evaluation B (Post-1980).
The mark [11] stands for this setting: Species/Cell Type: Human, Assay Type: Sister-chromatid exchange (SCE) in vitro, Assay Code: SC1+D, Dose Response: With dose response, Evaluation Type: Evaluation B (Post-1980).
[12] abbreviates: Species/Cell Type: Salmonella typhimurium (one or more of the five standard strains: TA98, TA100, TA1535, TA1537, and TA1538), Assay Type: Histidine reverse gene mutation, Ames assay, Assay Code: SAL+*, Activation: With metabolic activation, Evaluation Type: Evaluation A (Pre-1980).
Where [13] appears, read: Species/Cell Type: Nonhuman, Assay Type: Sister-chromatid exchange (SCE) in vitro, Assay Code: SC2+D, Dose Response: With dose response, Evaluation Type: Evaluation B (Post-1980).

Molecules are shown by their SMILES. Activity calls are given as the source filed them. The rule behind the calls is not given here.

Regarding `CC[n+]1c(-c2ccccc2)c2cc(N)ccc2c2ccc(N)cc21`, the mutagenic call (Species/Cell Type: Chinese hamster ovary (CHO) cells, Assay Type: Forward gene mutation at the HPRT locus, Assay Code: CHO+, Evaluation Type: Evaluation B (Post-1980)) was “active; positive”; the mutagenic call (Species/Cell Type: Escherichia coli polA (W3119 vs P3478), Assay Type: Rec-assay, DNA effects (bacterial DNA repair), Assay Code: RE1+, Evaluation Type: Evaluation A (Pre-1980)) was “active; positive”; the mutagenic call (Species/Cell Type: Mammalian cell culture, nonhuman, Assay Type: Micronucleus test in vitro, chromosome aberrations, Assay Code: MN&+, Evaluation Type: Evaluation A (Pre-1980)) is “active; positive”; the mutagenic call (Species/Cell Type: Mammalian germ cells, Sex: Male, Assay Type: Chromosome aberrations in vivo, Assay Code: CY9T, Evaluation Type: Evaluation A (Pre-1980)) is “no conclusion”; the mutagenic call under setting [1] was “inactive; negative”; the mutagenic call (Species/Cell Type: Saccharomyces cerevisiae, Assay Type: Mitotic recombination or gene conversion, Assay Code: YEC-, Evaluation Type: Evaluation A (Pre-1980)) is “inactive; negative”. The mutagenic call under setting [2] was “inactive; negative”; the mutagenic call (Species/Cell Type: Saccharomyces cerevisiae, Assay Type: Reverse gene mutation, Assay Code: YER-, Evaluation Type: Evaluation A (Pre-1980)) is “inactive; negative”; the mutagenic call under setting [3] is “active; positive”; the mutagenic call (Species/Cell Type: Syrian hamster embryo (SA7/SHE) cells, Assay Type: Cell transformation, viral enhanced, Assay Code: CT7-, Evaluation Type: Evaluation A (Pre-1980)) is “inactive; negative”.

`Nc1ncn[nH]1`: the mutagenic call is, setting by setting: (Species/Cell Type: Allium cepa, Assay Type: Chromosome aberrations, Assay Code: ALC+, Evaluation Type: Evaluation A (Pre-1980)) “active; positive”; (Species/Cell Type: Drosophila melanogaster, Assay Type: Aneuploidy, sex chromosome gain, chromosome aberrations, Assay Code: DAG-F, Evaluation Type: Evaluation A (Pre-1980)) “inactive; negative”; (Species/Cell Type: Drosophila melanogaster, Assay Type: Aneuploidy, whole sex chromosome loss, chromosome aberrations, Assay Code: DAC-F, Evaluation Type: Evaluation A (Pre-1980)) “inactive; negative”; (Species/Cell Type: Drosophila melanogaster, Assay Type: Sex-linked recessive lethal gene mutation, Assay Code: SRLT, Evaluation Type: Evaluation A (Pre-1980)) “no conclusion”; (Species/Cell Type: Escherichia coli polA (W3110 vs P3478), Assay Type: Rec-assay, DNA effects (bacterial DNA repair), Assay Code: RE2-, Evaluation Type: Evaluation A (Pre-1980)) “inactive; negative”; (Species/Cell Type: Escherichia coli polA (W3119 vs P3478), Assay Type: Rec-assay, DNA effects (bacterial DNA repair), Assay Code: RE1-, Evaluation Type: Evaluation A (Pre-1980)) “inactive; negative”. Further, the mutagenic call is “active; positive” under setting [4]; “active; positive” (Species/Cell Type: Hordeum vulgare (barley), Assay Type: Chromosome aberrations, Assay Code: HOC+, Evaluation Type: Evaluation A (Pre-1980)); “inactive; negative” under setting [5]; “no conclusion” under setting [6]; “inactive; negative” under setting [1]; “inactive; negative” (Species/Cell Type: Neurospora crassa, Assay Type: Aneuploidy, chromosome aberrations, Assay Code: NEN-, Evaluation Type: Evaluation A (Pre-1980)). Besides, the mutagenic call runs as follows: (Species/Cell Type: Nonhuman, Assay Type: Sister-chromatid exchange (SCE) in vitro, Assay Code: SC2+D*, Activation: With metabolic activation, Dose Response: With dose response, Evaluation Type: Evaluation B (Post-1980)) “active; positive”; under setting [2], “inactive; negative”; (Species/Cell Type: Salmonella typhimurium (one or more of the five standard strains: TA98, TA100, TA1535, TA1537, and TA1538), Assay Type: Histidine reverse gene mutation, Ames assay, Assay Code: SAL-, Evaluation Type: Evaluation A (Pre-1980)) “inactive; negative”; (Species/Cell Type: Salmonella typhimurium, Assay Type: Forward and reverse gene mutation, host-mediated assay, Assay Code: HMA+, Evaluation Type: Evaluation A (Pre-1980)) “active; positive”; under setting [8], “active; positive”; (Species/Cell Type: Vicia faba, Assay Type: Chromosome aberrations, Assay Code: VIC+, Evaluation Type: Evaluation A (Pre-1980)) “active; positive”. Under setting [7], the call is “active; positive”.

Regarding `NC(=O)N/N=C/c1ccc([N+](=O)[O-])o1`, the mutagenic call runs as follows: (Species/Cell Type: Bacillus subtilis (H17 vs M45), Assay Type: Rec-assay, spot test, DNA effects (bacterial DNA repair), Assay Code: REW+, Evaluation Type: Evaluation A (Pre-1980)) “active; positive”; (Species/Cell Type: Chinese hamster ovary (CHO) cells, Assay Type: Forward gene mutation at the HPRT locus, Assay Code: CHO-, Evaluation Type: Evaluation B (Post-1980)) “inactive; negative”; (Species/Cell Type: Escherichia coli WP2, Assay Type: Tryptophan reverse gene mutation, Assay Code: WP2T, Evaluation Type: Evaluation A (Pre-1980)) “no conclusion”; (Species/Cell Type: Escherichia coli WP2 UVRA, Assay Type: Tryptophan reverse gene mutation, Assay Code: WPU+D, Dose Response: With dose response, Evaluation Type: Evaluation A (Pre-1980)) “active; positive”; under setting [4], “active; positive”; under setting [5], “inactive; negative”. Moreover, the mutagenic call by setting is: under setting [6], “no conclusion”; under setting [1], “inactive; negative”; (Species/Cell Type: Neurospora crassa, Assay Type: Forward gene mutation, Assay Code: NEF+, Evaluation Type: Evaluation A (Pre-1980)) “active; positive”; (Species/Cell Type: Neurospora crassa, Assay Type: Reverse gene mutation, Assay Code: NER+, Evaluation Type: Evaluation A (Pre-1980)) “active; positive”; (Species/Cell Type: Nonhuman bone marrow, Assay Type: Chromosome aberrations, in vivo, Assay Code: CY#-, Evaluation Type: Evaluation A (Pre-1980)) “inactive; negative”; under setting [3], “active; positive”. In addition, the call (Species/Cell Type: Nonhuman, Assay Code: CCG+L, Evaluation Type: Evaluation A (Pre-1980)) is “active; positive”.

Regarding `CN(C)CCC=C1c2ccccc2C2OC2c2ccccc21` (configuration not stated), the mutagenic call under setting [9] was “no conclusion”.

Consider `CCCCCCCCCCCC(=O)N(C)N=O`, for which, where the note is “Species/Cell Type: Saccharomyces cerevisiae, Assay Type: Reverse gene mutation, Assay Code: YER+, Evaluation Type: Evaluation A (Pre-1980)”, the mutagenic call is “active; positive”.

Take `C=Cc1ccc(C)cc1`: the mutagenic call is, setting by setting: under setting [10], “active; positive”; under setting [11], “active; positive”.

As for `CCCN(CCCCO)N=O`, under setting [12], the mutagenic call is “active; positive”.

In the case of `O[C@H]1c2ccccc2-c2cc3ccccc3cc2[C@@H]1O`, the mutagenic call (Species/Cell Type: Chinese hamster lung (V79) cells, Assay Type: Forward gene mutation at the HPRT or ouabain locus, Assay Code: V79-, Evaluation Type: Evaluation A (Pre-1980)) was “inactive; negative”; the mutagenic call (Species/Cell Type: Mouse prostate cells, Assay Type: Cell transformation, Assay Code: CTM-, Evaluation Type: Evaluation A (Pre-1980)) is “inactive; negative”; the mutagenic call under setting [13] was “active; positive”; the mutagenic call under setting [9] is “no conclusion”; the mutagenic call under setting [8] is “active; positive”. Moreover, the call (Species/Cell Type: Nonhuman, Assay Code: CCGT, Evaluation Type: Evaluation A (Pre-1980)) was “no conclusion”.

`Nc1ccc(-c2ccc(N)c(Cl)c2)cc1Cl`: the mutagenic call is, setting by setting: under setting [4], “active; positive”; (Species/Cell Type: Human diploid fibroblasts, Assay Type: Unscheduled DNA synthesis (UDS) in vitro, DNA effects, Assay Code: UDHT, Evaluation Type: Evaluation A (Pre-1980)) “no conclusion”; (Species/Cell Type: Mammalian polychromatic erythrocytes, Assay Type: Micronucleus test, chromosome aberrations, Assay Code: MNT+, Evaluation Type: Evaluation B (Post-1980)) “active; positive”; under setting [12], “active; positive”; under setting [3], “active; positive”; (Species/Cell Type: Syrian hamster embryo (SA7/SHE) cells, Assay Type: Cell transformation, viral enhanced, Assay Code: CT7+, Evaluation Type: Evaluation A (Pre-1980)) “active; positive”. Besides, the call under setting [7] is “active; positive”.

With `Cc1[nH]cnc1CSCCN=C(NC#N)N(C)N=O`, the mutagenic call by setting is: under setting [10], “active; positive”; under setting [11], “active; positive”; under setting [13], “active; positive”.

`CCOC(=O)COc1ccc(Cl)cc1CSC(=N)N`: the mutagenic call (Species/Cell Type: Saccharomyces cerevisiae, Assay Type: Reverse gene mutation, Assay Code: YERT, Evaluation Type: Evaluation A (Pre-1980)) was “no conclusion”.

Turning to `O=C1CCc2c1ccc1c2ccc2ccccc21`, the mutagenic call was “no conclusion” (Species/Cell Type: Human lymphocytes, Assay Type: Sister-chromatid exchange (SCE) in vitro, Assay Code: SCLT, Evaluation Type: Evaluation B (Post-1980)); “no conclusion” (Species/Cell Type: Human, Assay Type: Sister-chromatid exchange (SCE) in vitro, Assay Code: SC1T, Evaluation Type: Evaluation B (Post-1980)); “active; positive” under setting [12].
